Experiments:
[1] = rat, in vivo
[2] = in vivo; settings: rat, inhaled or intranasal, 6 mg/kg

SMILES: CC[C@H](C)[C@H](NC(=O)[C@H](C)NC(=O)[C@H](CC(N)=O)NC(=O)CNC(=O)[C@H](CC(C)C)NC(=O)[C@H](CC(N)=O)NC(=O)[C@@H](NC(=O)CNC(=O)[C@@H](NC(=O)[C@H](CC(=O)O)NC(=O)[C@H](CC(C)C)NC(=O)[C@H](CCCNC(=N)N)NC(=O)[C@H](CCC(=O)O)NC(=O)[C@H](CC(C)C)NC(=O)[C@H](CO)NC(=O)[C@@H](NC(=O)[C@@H]1CCCN1C(=O)[C@@H]1CCCN1C(C)=O)[C@@H](C)CC)C(C)C)[C@@H](C)O)C(=O)N[C@@H](C)C(=O)N[C@@H](CCCCN)C(=O)N[C@@H](CC(C)C)C(=O)N[C@@H](CCC(=O)O)C(=O)N[C@@H](CC(=O)O)C(=O)N[C@@H](C)C(=O)N[C@@H](CCCCN)C(=O)N[C@@H](CCC(=O)O)C(=O)N[C@@H](CC(C)C)C(=O)N[C@@H](CC(C)C)C(=O)N[C@@H](CCC(=O)O)C(=O)N[C@@H](CO)C(=O)N[C@@H](CO)C(=O)N[C@@H](CC(=O)O)C(=O)N[C@@H](CCC(N)=O)C(=O)N[C@H](C(=O)N[C@@H](CC(C)C)C(=O)N[C@@H](CCCNC(=N)N)C(=O)NCC(=O)N[C@@H](CO)C(=O)NCC(=O)N[C@@H](CO)C(=O)NCC(=O)N[C@@H](CSC1=CC(=O)N(CCCC(=O)NCCOCCOCCOCCOCCC(=O)NCCN(CCNC(=O)CCOCCOCCOCCOCCNC(=O)CCCN2C(=O)C=C(SC[C@H](NC(=O)CNC(=O)[C@H](CO)NC(=O)CNC(=O)[C@H](CO)NC(=O)CNC(=O)[C@H](CCCNC(=N)N)NC(=O)[C@H](CC(C)C)NC(=O)[C@@H](NC(=O)[C@H](CCC(N)=O)NC(=O)[C@H](CC(=O)O)NC(=O)[C@H](CO)NC(=O)[C@H](CO)NC(=O)[C@H](CCC(=O)O)NC(=O)[C@H](CC(C)C)NC(=O)[C@H](CC(C)C)NC(=O)[C@H](CCC(=O)O)NC(=O)[C@H](CCCCN)NC(=O)[C@H](C)NC(=O)[C@H](CC(=O)O)NC(=O)[C@H](CCC(=O)O)NC(=O)[C@H](CC(C)C)NC(=O)[C@H](CCCCN)NC(=O)[C@H](C)NC(=O)[C@@H](NC(=O)[C@H](C)NC(=O)[C@H](CC(N)=O)NC(=O)CNC(=O)[C@H](CC(C)C)NC(=O)[C@H](CC(N)=O)NC(=O)[C@@H](NC(=O)CNC(=O)[C@@H](NC(=O)[C@H](CC(=O)O)NC(=O)[C@H](CC(C)C)NC(=O)[C@H](CCCNC(=N)N)NC(=O)[C@H](CCC(=O)O)NC(=O)[C@H](CC(C)C)NC(=O)[C@H](CO)NC(=O)[C@@H](NC(=O)[C@@H]3CCCN3C(=O)[C@@H]3CCCN3C(C)=O)[C@@H](C)CC)C(C)C)[C@@H](C)O)[C@@H](C)CC)[C@@H](C)CC)C(N)=O)C2=O)CCOc2c(C)c(C)c3c(c2C)CC[C@](C)(CCC[C@@H](C)CCC[C@@H](C)CCCC(C)C)O3)C1=O)C(N)=O)[C@@H](C)CC [HRC4-tocopherol]
- presence in the brain / CNS localization [1]: no CNS localization
- presence in the serum [1]: minimal presence in the serum
- level at time molar at 8 h [2]: ~2000 nM

SMILES: CC[C@H](C)[C@H](NC(=O)[C@H](C)NC(=O)[C@H](CC(N)=O)NC(=O)CNC(=O)[C@H](CC(C)C)NC(=O)[C@H](CC(N)=O)NC(=O)[C@@H](NC(=O)CNC(=O)[C@@H](NC(=O)[C@H](CC(=O)O)NC(=O)[C@H](CC(C)C)NC(=O)[C@H](CCCNC(=N)N)NC(=O)[C@H](CCC(=O)O)NC(=O)[C@H](CC(C)C)NC(=O)[C@H](CO)NC(=O)[C@@H](NC(=O)[C@@H]1CCCN1C(=O)[C@@H]1CCCN1C(C)=O)[C@@H](C)CC)C(C)C)[C@@H](C)O)C(=O)N[C@@H](C)C(=O)N[C@@H](CCCCN)C(=O)N[C@@H](CC(C)C)C(=O)N[C@@H](CCC(=O)O)C(=O)N[C@@H](CC(=O)O)C(=O)N[C@@H](C)C(=O)N[C@@H](CCCCN)C(=O)N[C@@H](CCC(=O)O)C(=O)N[C@@H](CC(C)C)C(=O)N[C@@H](CC(C)C)C(=O)N[C@@H](CCC(=O)O)C(=O)N[C@@H](CO)C(=O)N[C@@H](CO)C(=O)N[C@@H](CC(=O)O)C(=O)N[C@@H](CCC(N)=O)C(=O)N[C@H](C(=O)N[C@@H](CC(C)C)C(=O)N[C@@H](CCCNC(=N)N)C(=O)NCC(=O)N[C@@H](CO)C(=O)NCC(=O)N[C@@H](CO)C(=O)NCC(=O)N[C@@H](CSC1=CC(=O)N(CCCC(=O)NCCOCCOCCOCCOCCC(=O)NCCN(CCNC(=O)CCOCCOCCOCCOCCNC(=O)CCCN2C(=O)C=C(SC[C@H](NC(=O)CNC(=O)[C@H](CO)NC(=O)CNC(=O)[C@H](CO)NC(=O)CNC(=O)[C@H](CCCNC(=N)N)NC(=O)[C@H](CC(C)C)NC(=O)[C@@H](NC(=O)[C@H](CCC(N)=O)NC(=O)[C@H](CC(=O)O)NC(=O)[C@H](CO)NC(=O)[C@H](CO)NC(=O)[C@H](CCC(=O)O)NC(=O)[C@H](CC(C)C)NC(=O)[C@H](CC(C)C)NC(=O)[C@H](CCC(=O)O)NC(=O)[C@H](CCCCN)NC(=O)[C@H](C)NC(=O)[C@H](CC(=O)O)NC(=O)[C@H](CCC(=O)O)NC(=O)[C@H](CC(C)C)NC(=O)[C@H](CCCCN)NC(=O)[C@H](C)NC(=O)[C@@H](NC(=O)[C@H](C)NC(=O)[C@H](CC(N)=O)NC(=O)CNC(=O)[C@H](CC(C)C)NC(=O)[C@H](CC(N)=O)NC(=O)[C@@H](NC(=O)CNC(=O)[C@@H](NC(=O)[C@H](CC(=O)O)NC(=O)[C@H](CC(C)C)NC(=O)[C@H](CCCNC(=N)N)NC(=O)[C@H](CCC(=O)O)NC(=O)[C@H](CC(C)C)NC(=O)[C@H](CO)NC(=O)[C@@H](NC(=O)[C@@H]3CCCN3C(=O)[C@@H]3CCCN3C(C)=O)[C@@H](C)CC)C(C)C)[C@@H](C)O)[C@@H](C)CC)[C@@H](C)CC)C(N)=O)C2=O)CCOC2CCC3(C)C(=CCC4C3CCC3(C)C(C(C)CCCC(C)C)CCC43)C2)C1=O)C(N)=O)[C@@H](C)CC (stereo partly drawn) [MV HRC4]
- presence in the brain / CNS localization [1]: a small fraction of the administered peptides was present
- presence in the serum [1]: a small fraction of the administered peptides was present
- level at time molar at 8 h [2]: ~400 nM

Source: patent US10172961B2 (priority 2014, dated 2019)
